Assay results as given in patent US9113629B2, “4-amino-6-(4-substituted-phenyl)-picolinates and 6-amino-2-(4-substituted-phenyl)-pyrimidine-4-carboxylates and their use as herbicides” (DOW AGROSCIENCES LLC, priority 2013, dated 2015).
Like-named read-outs stand apart in the source and are kept apart here. Values belong to the compound of their own block, whether it stands above or below them.

Assays:
[1] = tested on: Key Broadleaf Weed and Crop Species; test: Post-emergent Test II herbicidal activity (Table 5); format: in vivo; conditions: post-emergence, 336 h, post-emergent, 14 days after application; for pest or weed control at 70 g/ha: 70 g ai/ha; for pest or weed control at 140 g/ha: 140 g ai/ha
Method in brief: (§1)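 Plants grown in Metro-Mix 360 (pH 6.0–6.8) in a greenhouse (~15 h photoperiod, 23–29 °C day) to first or second true leaf stage, then sprayed with compound in acetone/DMSO/aqueous crop-oil-surfactant carrier at 187 L/ha by track sprayer. Injury visually scored 0–100% versus untreated plants after 14 d.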

[2] = tested on: Key Grass and Sedge Weeds as well as Grass Crops; test: Post-emergent Test II herbicidal activity (Table 6); format: in vivo; conditions: post-emergence, 336 h; for pest or weed control at 70 g/ha: application rate 70 g ai/ha; for pest or weed control at 140 g/ha: application rate 140 g ai/ha
Method in brief: as §1

[3] = ABUTH: velvetleaf (Abutilon theophrasti), read-out: Visual Growth Reduction (%) 14 Days After Application ABUTH
[4] = AMARE: redroot pigweed (Amaranthus retroflexus), read-out: Visual Growth Reduction (%) 14 Days After Application AMARE
[5] = BRSNN: oilseed-rape, canola (Brassica napus), read-out: Visual Growth Reduction (%) 14 Days After Application BRSNN
[6] = CHEAL: lambsquarters (Chenopodium album), read-out: Visual Growth Reduction (%) 14 Days After Application CHEAL
[7] = EPHHL: wild poinsettia (Euphorbia heterophylla), read-out: Visual Growth Reduction (%) 14 Days After Application EPHHL
[8] = HELAN: sunflower (Helianthus annuus), read-out: Visual Growth Reduction (%) 14 Days After Application HELAN
[9] = VIOTR: wild pansy (Viola tricolor), read-out: Visual Growth Reduction (%) 14 Days After Application VIOTR
[10] = Triticum aestivum, TRZSS (wheat), read-out: Visual Growth Reduction (%) 14 Days After Application, TRZSS
[11] = CYPES: yellow nutsedge (Cyperus esculentus), read-out: Visual Growth Reduction (%) 14 Days After Application, CYPES
[12] = DIGSA: crabgrass (Digitaria sanguinalis), read-out: Visual Growth Reduction (%) 14 Days After Application, DIGSA
[13] = ECHCG: barnyardgrass (Echinochloa crus-galli), read-out: Visual Growth Reduction (%) 14 Days After Application, ECHCG
[14] = ORYSA: rice (Oryza sativa), read-out: Visual Growth Reduction (%) 14 Days After Application, ORYSA
[15] = SETFA: giant foxtail (Setaria faberi), read-out: Visual Growth Reduction (%) 14 Days After Application, SETFA
[16] = SORVU: grain sorghum (Sorghum vulgare), read-out: Visual Growth Reduction (%) 14 Days After Application, SORVU
[17] = ZEAMX: maize, corn (Zea mays), read-out: Visual Growth Reduction (%) 14 Days After Application, ZEAMX

melting point: 158.9 to 161.2 °C
Structure (SMILES): C#Cc1ccc(-c2cc(N)c(Cl)c(C(=O)OC)n2)cc1 [Compound 126]
pest or weed control at 70 g/ha [1, 3]: 95 to 100%
pest or weed control at 140 g/ha [1, 3]: 95 to 100%
pest or weed control at 70 g/ha [1, 4]: 95 to 100%
pest or weed control at 140 g/ha [1, 4]: 95 to 100%
pest or weed control at 70 g/ha [1, 5]: 75 to 84%
pest or weed control at 140 g/ha [1, 5]: 85 to 94%
pest or weed control at 70 g/ha [1, 6]: 95 to 100%
pest or weed control at 140 g/ha [1, 6]: 95 to 100%
pest or weed control at 70 g/ha [1, 7]: 95 to 100%
pest or weed control at 140 g/ha [1, 7]: 95 to 100%
pest or weed control at 70 g/ha [1, 8]: 85 to 94%
pest or weed control at 140 g/ha [1, 8]: 95 to 100%
pest or weed control at 70 g/ha [1, 9]: 0 to 29%
pest or weed control at 140 g/ha [1, 9]: 30 to 44%
pest or weed control at 70 g/ha [2, 10]: 0 to 29%
pest or weed control at 140 g/ha [2, 10]: 0 to 29%
pest or weed control at 70 g/ha [2, 11]: 60 to 74%
pest or weed control at 140 g/ha [2, 11]: 30 to 44%
pest or weed control at 70 g/ha [2, 12]: 75 to 84%
pest or weed control at 140 g/ha [2, 12]: 85 to 94%
pest or weed control at 70 g/ha [2, 13]: 95 to 100%
pest or weed control at 140 g/ha [2, 13]: 95 to 100%
pest or weed control at 70 g/ha [2, 14]: 0 to 29%
pest or weed control at 140 g/ha [2, 14]: 0 to 29%
pest or weed control at 70 g/ha [2, 15]: 0 to 29%
pest or weed control at 140 g/ha [2, 15]: 75 to 84%
pest or weed control at 70 g/ha [2, 16]: 75 to 84%
pest or weed control at 140 g/ha [2, 16]: 85 to 94%
pest or weed control at 70 g/ha [2, 17]: 0 to 29%
pest or weed control at 140 g/ha [2, 17]: 60 to 74%

melting point: 118 to 120 °C
Structure (SMILES): C=Cc1c(C(=O)OC)nc(-c2ccc(C(F)(F)F)c(F)c2F)c(F)c1N [Compound 53, methyl 4-amino-6-(2,3-difluoro-4-(trifluoromethyl)phenyl)-5-fluoro-3-vinylpicolinate]
pest or weed control at 70 g/ha [1, 3]: 0 to 29%
pest or weed control at 140 g/ha [1, 3]: 0 to 29%
pest or weed control at 70 g/ha [1, 4]: 0 to 29%
pest or weed control at 140 g/ha [1, 4]: 0 to 29%
pest or weed control at 70 g/ha [1, 5]: 0 to 29%
pest or weed control at 140 g/ha [1, 5]: 0 to 29%
pest or weed control at 70 g/ha [1, 6]: 0 to 29%
pest or weed control at 140 g/ha [1, 6]: 0 to 29%
pest or weed control at 70 g/ha [1, 7]: 95 to 100%
pest or weed control at 140 g/ha [1, 7]: 95 to 100%
pest or weed control at 70 g/ha [1, 8]: 0 to 29%
pest or weed control at 140 g/ha [1, 8]: 0 to 29%
pest or weed control at 70 g/ha [1, 9]: 0 to 29%
pest or weed control at 140 g/ha [1, 9]: 0 to 29%
pest or weed control at 70 g/ha [2, 10]: 0 to 29%
pest or weed control at 140 g/ha [2, 10]: 0 to 29%
pest or weed control at 70 g/ha [2, 11]: 0 to 29%
pest or weed control at 140 g/ha [2, 11]: 0 to 29%
pest or weed control at 70 g/ha [2, 12]: 0 to 29%
pest or weed control at 140 g/ha [2, 12]: 0 to 29%
pest or weed control at 70 g/ha [2, 13]: 0 to 29%
pest or weed control at 140 g/ha [2, 13]: 0 to 29%
pest or weed control at 70 g/ha [2, 14]: 0 to 29%
pest or weed control at 140 g/ha [2, 14]: 0 to 29%
pest or weed control at 70 g/ha [2, 15]: 0 to 29%
pest or weed control at 140 g/ha [2, 15]: 0 to 29%
pest or weed control at 70 g/ha [2, 16]: 0 to 29%
pest or weed control at 140 g/ha [2, 16]: 0 to 29%
pest or weed control at 70 g/ha [2, 17]: 0 to 29%
pest or weed control at 140 g/ha [2, 17]: 0 to 29%

melting point: 142 to 144 °C
Structure (SMILES): COC(=O)c1nc(-c2cc(F)c(I)cc2F)c(F)c(N)c1Cl [Compound 55, methyl 4-amino-3-chloro-6-(2,5-difluoro-4-iodophenyl)-5-fluoropicolinate]
pest or weed control at 70 g/ha [1, 3]: 95 to 100%
pest or weed control at 140 g/ha [1, 3]: 95 to 100%
pest or weed control at 70 g/ha [1, 4]: 95 to 100%
pest or weed control at 140 g/ha [1, 4]: 95 to 100%
pest or weed control at 70 g/ha [1, 5]: 95 to 100%
pest or weed control at 140 g/ha [1, 5]: 95 to 100%
pest or weed control at 70 g/ha [1, 6]: 95 to 100%
pest or weed control at 140 g/ha [1, 6]: 95 to 100%
pest or weed control at 70 g/ha [1, 7]: 95 to 100%
pest or weed control at 140 g/ha [1, 7]: 95 to 100%
pest or weed control at 70 g/ha [1, 8]: 95 to 100%
pest or weed control at 140 g/ha [1, 8]: 95 to 100%
pest or weed control at 70 g/ha [1, 9]: 95 to 100%
pest or weed control at 140 g/ha [1, 9]: 95 to 100%
pest or weed control at 140 g/ha [2, 10]: 95 to 100%
pest or weed control at 70 g/ha [2, 11]: 95 to 100%
pest or weed control at 140 g/ha [2, 11]: 95 to 100%
pest or weed control at 70 g/ha [2, 12]: 85 to 94%
pest or weed control at 140 g/ha [2, 12]: 85 to 94%
pest or weed control at 70 g/ha [2, 13]: 95 to 100%
pest or weed control at 140 g/ha [2, 13]: 95 to 100%
pest or weed control at 70 g/ha [2, 14]: 0 to 29%
pest or weed control at 140 g/ha [2, 14]: 0 to 29%
pest or weed control at 70 g/ha [2, 15]: 95 to 100%
pest or weed control at 140 g/ha [2, 15]: 95 to 100%
pest or weed control at 70 g/ha [2, 16]: 85 to 94%
pest or weed control at 140 g/ha [2, 16]: 95 to 100%
pest or weed control at 70 g/ha [2, 17]: 60 to 74%
pest or weed control at 140 g/ha [2, 17]: 85 to 94%

melting point: 115 to 118 °C
Structure (SMILES): COC(=O)c1nc(-c2ccc(I)cc2)c(C)c(N)c1Cl [Compound 136, methyl 4-amino-3-chloro-6-(4-iodophenyl)-5-methylpicolinate]
pest or weed control at 70 g/ha [1, 3]: 95 to 100%
pest or weed control at 140 g/ha [1, 3]: 95 to 100%
pest or weed control at 70 g/ha [1, 4]: 85 to 94%
pest or weed control at 140 g/ha [1, 4]: 85 to 94%
pest or weed control at 70 g/ha [1, 5]: 85 to 94%
pest or weed control at 140 g/ha [1, 5]: 85 to 94%
pest or weed control at 70 g/ha [1, 6]: 95 to 100%
pest or weed control at 140 g/ha [1, 6]: 95 to 100%
pest or weed control at 70 g/ha [1, 7]: 0 to 29%
pest or weed control at 140 g/ha [1, 7]: 0 to 29%
pest or weed control at 70 g/ha [1, 8]: 95 to 100%
pest or weed control at 140 g/ha [1, 8]: 95 to 100%
pest or weed control at 70 g/ha [1, 9]: 0 to 29%
pest or weed control at 140 g/ha [1, 9]: 0 to 29%
pest or weed control at 70 g/ha [2, 10]: 45 to 59%
pest or weed control at 140 g/ha [2, 10]: 45 to 59%
pest or weed control at 70 g/ha [2, 11]: 95 to 100%
pest or weed control at 140 g/ha [2, 11]: 95 to 100%
pest or weed control at 70 g/ha [2, 12]: 60 to 74%
pest or weed control at 140 g/ha [2, 12]: 60 to 74%
pest or weed control at 70 g/ha [2, 13]: 0 to 29%
pest or weed control at 140 g/ha [2, 13]: 0 to 29%
pest or weed control at 70 g/ha [2, 14]: 0 to 29%
pest or weed control at 140 g/ha [2, 14]: 0 to 29%
pest or weed control at 70 g/ha [2, 15]: 30 to 44%
pest or weed control at 140 g/ha [2, 15]: 45 to 59%
pest or weed control at 70 g/ha [2, 16]: 60 to 74%
pest or weed control at 140 g/ha [2, 16]: 60 to 74%
pest or weed control at 70 g/ha [2, 17]: 60 to 74%
pest or weed control at 140 g/ha [2, 17]: 75 to 84%
